Tests used:
[1] = target: T1, full length Grk5 (Homo sapiens, UniProt P34947); test: GRK5 kinase activity assay (ADP Glo Kinase Assay); assay type: biochemical; details: Table 5
T1 construct: 2 µl 6/2 fold concentrated full length Grk5 (Millipore, #14-714) in reaction buffer is added to each well; purchased Millipore 14-714
Experimental: Increasing concentrations of GRK5 are incubated together with 100 µM ATP in the absence and presence of 10 µM casein in a reaction buffer. Within this incubation non-phosphorylated casein is converted into phosphorylated casein and ATP is converted into ADP. Thereafter nonconverted ATP is digested into AMP by addition of the ADP-Glo™Reagent. Subsequently the ADP that is produced by GRK5 activity is phosphorylated back to ATP by addition of Promega Kinase Detection Reagent. These ATP levels serve as measure for the GRK5 activity and are quantified by a luciferase/luciferin reaction.
Km(ATP) was determined by measuring the GRK5 activity at increasing ATP concentrations.
The reaction buffer used was composed of: 20 mM MES pH 6.0, 1 mM DTT, 10 mM MgCl2, 0.01 % Tween20 and the reaction volume was 6µl.
Firstly 4 µl 6/4 fold concentrated substrate and 6/4 fold concentrated ATP in 1 fold concentrated reaction buffer are added to each well of the assay plate. Subsequently 67 nl 1000 fold concentrated test compound in 100 % DMSO are added to each well except to C- and C+ wells using pin tool. Then 67 nl 100 % DMSO are pipetted to C- (no kinase, no compound) and C+ (no compound) wells using pin-tool and 2 µl reaction buffer are added to C- wells. […] Finally, after incubation for 40 min at room temperature the luminescence intensity was measured. […]

[2] = target: T2, full length human Scyl1 (1-808) protein (Homo sapiens, UniProt Q96KG9); test: SCYL1 reporter probe displacement assay; assay type: binding
T2 construct: The target enzyme used was the full length human Scyl1 (1-808) protein
T2 sequence (Q96KG9 1-808): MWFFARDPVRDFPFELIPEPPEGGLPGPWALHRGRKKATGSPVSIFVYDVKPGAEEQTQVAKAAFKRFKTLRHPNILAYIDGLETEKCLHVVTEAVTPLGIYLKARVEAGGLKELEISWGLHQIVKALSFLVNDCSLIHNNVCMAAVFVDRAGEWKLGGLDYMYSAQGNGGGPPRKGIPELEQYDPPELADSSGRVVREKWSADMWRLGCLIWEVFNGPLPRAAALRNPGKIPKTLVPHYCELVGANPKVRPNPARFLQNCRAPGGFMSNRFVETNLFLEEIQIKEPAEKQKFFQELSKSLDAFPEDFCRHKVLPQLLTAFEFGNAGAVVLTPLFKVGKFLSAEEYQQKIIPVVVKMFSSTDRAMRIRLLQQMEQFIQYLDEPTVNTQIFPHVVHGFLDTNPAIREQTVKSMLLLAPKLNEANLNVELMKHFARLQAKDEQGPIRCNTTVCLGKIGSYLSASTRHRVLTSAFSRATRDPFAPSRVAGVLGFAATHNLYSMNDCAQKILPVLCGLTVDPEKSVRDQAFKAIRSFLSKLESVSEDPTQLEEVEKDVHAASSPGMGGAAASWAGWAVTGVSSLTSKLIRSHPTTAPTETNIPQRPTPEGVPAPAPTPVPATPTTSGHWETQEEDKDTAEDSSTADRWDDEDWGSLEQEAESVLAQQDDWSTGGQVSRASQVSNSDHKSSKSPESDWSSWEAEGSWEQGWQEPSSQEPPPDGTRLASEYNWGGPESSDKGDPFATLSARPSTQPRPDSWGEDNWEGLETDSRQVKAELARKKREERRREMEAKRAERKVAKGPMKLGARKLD
Experimental: The reporter displacement assay is based on reporter probe (PRO16, Proteros GmbH) that is designed to bind to ATP-binding site of SCYL1 (Methods in Enzymology, 2011, vol. 493, p. 300-319). The proximity between reporter probe and target protein (SCYL1) results in the emission of an optical signal. Test compounds that bind to the same site as the reporter probe displace the probe, causing signal diminution. The rate of reporter probe displacement is measured over time after addition of test compounds at various concentrations.
For Kd determination, percent reporter probe displacement values are calculated for the last time point, at which the system has reached equilibrium. For each compound concentration percent probe displacement values are calculated and plotted against the compound concentration. IC50-like values (corresponding to 50% probe displacement) are calculated using standard fitting algorithms. […] Thus, according to the Cheng Prusoff equation, the Kd value of test compounds can be calculated with Kd = ½ IC50. […]
Probe displacement was calculated in relation to the C+(positive) and C-(negative) controls. The signal reflecting 0% probe displacement (C+) was measured in the absence of test compound, while the signal representing 100% probe displacement (C-) was measured in the absence of Scyl1. […]

T1 sequence (P34947 whole entry): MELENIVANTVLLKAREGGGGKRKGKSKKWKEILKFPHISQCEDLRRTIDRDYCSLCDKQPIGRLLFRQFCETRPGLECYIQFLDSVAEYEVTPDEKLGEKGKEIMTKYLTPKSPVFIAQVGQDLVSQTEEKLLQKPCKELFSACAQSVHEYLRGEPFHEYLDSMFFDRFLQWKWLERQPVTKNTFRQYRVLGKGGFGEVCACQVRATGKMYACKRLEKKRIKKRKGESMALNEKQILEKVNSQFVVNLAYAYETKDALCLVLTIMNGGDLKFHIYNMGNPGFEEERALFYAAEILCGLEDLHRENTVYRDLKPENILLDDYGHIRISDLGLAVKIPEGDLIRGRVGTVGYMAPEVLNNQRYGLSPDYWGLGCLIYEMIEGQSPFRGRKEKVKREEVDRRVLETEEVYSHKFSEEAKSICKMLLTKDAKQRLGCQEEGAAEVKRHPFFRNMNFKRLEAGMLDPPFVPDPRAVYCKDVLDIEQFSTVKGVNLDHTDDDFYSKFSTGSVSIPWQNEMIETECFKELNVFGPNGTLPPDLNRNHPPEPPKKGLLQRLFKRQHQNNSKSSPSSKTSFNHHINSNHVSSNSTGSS

IC50 [1] [µM]	IC50 ([2]; Scyl1 probe displacement) [nM]	Inh. ([2]; probe displacement, primary screen) [%]	Compound
20 to 80			NC(=O)c1ccc(-c2cnc3ccc(Cc4ccc(F)cc4)nn23)cc1 [compound 1, 4-[6-[(4-fluorophenyl)methyl]imidazo[1,2-b]pyridazin-3-yl]benzamide]
	500	100	COc1cc(-c2ccc3ncc(-c4cccnc4)n3n2)cc(OC)c1OC [compound 10, 3-(3-pyridyl)-6-(3,4,5-trimethoxyphenyl)imidazo[1,2-b]pyridazine]

Reference: patent EP2818471A1, “Nitrogen bicyclic compounds as inhibitors for Scyl1 and Grk5” (Max-Planck-Gesellschaft zur Förderung der Wissenschaften …, priority 2013, dated 2014)
